Test results reported in paper PMC11124822, “Discovery and Anticancer Screening of Novel Oxindole-Based Derivative Bearing Pyridyl Group as Potent and Selective Dual FLT3/CDK2 Kinase Inhibitor” (Pharmaceuticals, 2024).

Columns and labels:
Assay in all cases: NCI-60 antiproliferative screen (SRB)
[1] = test system: KM12; format: cell-based, human; details: Homo sapiens; 10 µM single dose, 48 h; KM12 (Colon); read-out: Growth inhibition (%)
[2] = test system: HCT-116; format: cell-based, human; details: Homo sapiens; 10 µM single dose, 48 h; HCT-116 (Colon); read-out: Growth inhibition (%)
[3] = test system: SNB-75; details: Homo sapiens, SNB-75, 48 h, read-out: Growth inhibition (%)
[4] = test system: RPMI-8226; format: cell-based, human; details: Homo sapiens; 10 µM single dose, 48 h; RPMI-8226 (Leukemia); read-out: Growth inhibition (%)
[5] = test system: MDA-MB-468; format: cell-based, human; details: Homo sapiens; 10 µM single dose, 48 h; MDA-MB-468 (Breast); read-out: Growth inhibition (%)
[6] = test system: SK-MEL-28; format: cell-based, human; details: Homo sapiens; 10 µM single dose, 48 h; SK-MEL-28 (Melanoma); read-out: Growth inhibition (%)
[7] = test system: TK-10; format: cell-based, human; details: Homo sapiens; 10 µM single dose, 48 h; TK-10 (Renal); read-out: Growth inhibition (%)
[8] = test system: CCRF-CEM; format: cell-based, human; details: Homo sapiens; 10 µM single dose, 48 h; CCRF-CEM (Leukemia); read-out: Growth inhibition (%)
[9] = test system: MDA-MB-231; format: cell-based, human; details: Homo sapiens; 10 µM single dose, 48 h; MDA-MB-231 (Breast); read-out: Growth inhibition (%)
[10] = test system: PC-3; format: cell-based, human; details: Homo sapiens; 10 µM single dose, 48 h; PC-3 (Prostate); read-out: Growth inhibition (%)
[11] = test system: HL-60(TB); format: cell-based, human; details: Homo sapiens; 10 µM single dose, 48 h; HL-60(TB) (Leukemia); read-out: Growth inhibition (%)
[12] = test system: U251; format: cell-based, human; details: Homo sapiens, U-251; 10 µM single dose, 48 h; U251 (CNS); read-out: Growth inhibition (%)
[13] = test system: MOLT-4; format: cell-based; details: Homo sapiens; 10 µM single dose, 48 h; MOLT-4 (Leukemia); read-out: Growth inhibition (%)
[14] = test system: SK-MEL-2; format: cell-based, human; details: Homo sapiens; 10 µM single dose, 48 h; SK-MEL-2 (Melanoma); read-out: Growth inhibition (%)
[15] = test system: 786-0; format: cell-based, human; details: Homo sapiens; 10 µM single dose, 48 h; 786-0 (Renal); read-out: Growth inhibition (%)
[16] = test system: MCF7; format: cell-based, human; details: Homo sapiens; 10 µM single dose, 48 h; MCF7 (Breast); read-out: Growth inhibition (%)
[17] = test system: MALME-3M; format: cell-based, human; details: Homo sapiens; 10 µM single dose, 48 h; MALME-3M (Melanoma); read-out: Growth inhibition (%)
[18] = test system: OVCAR-5; format: cell-based, human; details: Homo sapiens; 10 µM single dose, 48 h; OVCAR-5 (Ovarian); read-out: Growth inhibition (%)
[19] = test system: SF-295; format: cell-based, human; details: Homo sapiens; 10 µM single dose, 48 h; SF-295 (CNS); read-out: Growth inhibition (%)
[20] = test system: EKVX; format: cell-based, human; details: Homo sapiens; 10 µM single dose, 48 h; EKVX (NSCLC); read-out: Growth inhibition (%)
[21] = test system: NCI-H226; format: cell-based, human; details: Homo sapiens; 10 µM single dose, 48 h; NCI-H226 (NSCLC); read-out: Growth inhibition (%)
[22] = test system: RXF 393; format: cell-based, human; details: Homo sapiens; 10 µM single dose, 48 h; RXF 393 (Renal); read-out: Growth inhibition (%)
[23] = test system: IGROV1; format: cell-based, human; details: Homo sapiens, IGROV-1; 10 µM single dose, 48 h; IGROV1 (Ovarian); read-out: Growth inhibition (%)
[24] = test system: SN12C; format: cell-based, human; details: Homo sapiens; 10 µM single dose, 48 h; SN12C (Renal); read-out: Growth inhibition (%)
[25] = test system: T-47D; format: cell-based, human; details: Homo sapiens, T47D; 10 µM single dose, 48 h; T-47D (Breast); read-out: Growth inhibition (%)
[26] = test system: HCC-2998; format: cell-based, human; details: Homo sapiens; 10 µM single dose, 48 h; HCC-2998 (Colon); read-out: Growth inhibition (%)
[27] = test system: K-562; format: cell-based, human; details: Homo sapiens, K562; 10 µM single dose, 48 h; K-562 (Leukemia); read-out: Growth inhibition (%)
[28] = test system: COLO 205; format: cell-based, human; details: Homo sapiens; 10 µM single dose, 48 h; COLO 205 (Colon); read-out: Growth inhibition (%)
[29] = test system: UO-31; format: cell-based, human; details: Homo sapiens; 10 µM single dose, 48 h; UO-31 (Renal); read-out: Growth inhibition (%)
[30] = test system: HS 578T; format: cell-based, human; details: Homo sapiens; 10 µM single dose, 48 h; HS 578T (Breast); read-out: Growth inhibition (%)

Row | SMILES | inhibition at 10 µM [1] | inhibition at 10 µM [2] | inhibition at 10 µM [3] | inhibition at 10 µM [4] | inhibition at 10 µM [5] | inhibition at 10 µM [6] | inhibition at 10 µM [7] | inhibition at 10 µM [8] | inhibition at 10 µM [9] | inhibition at 10 µM [10] | inhibition at 10 µM [11] | inhibition at 10 µM [12] | inhibition at 10 µM [13] | inhibition at 10 µM [14] | inhibition at 10 µM [15] | inhibition at 10 µM [16] | inhibition at 10 µM [17] | inhibition at 10 µM [18] | inhibition at 10 µM [19] | inhibition at 10 µM [20] | further results
1 | O=C1Nc2ccc(F)cc2C1=Cc1ccc(OCc2ccncc2)cc1 (mixture of isomers) [Compound 5n, (E/Z)-5-Fluoro-3-[4-(pyridin-4-ylmethoxy)benzylidene] indolin-2-one] | 69.8% | 56.1% | 26.6% | 64.5% | 61.8% | -9.39% | 29.9% | 40.6% | 20.7% | 47.4% | 57.8% | 61.3% | 76.7% | 28.1% | 19.4% | 91.8% | 26.8% | -27.6% | 51.7% | 52.2% | inhibition at 10 µM [21]: 44.5%; inhibition at 10 µM [22]: 47.6%; inhibition at 10 µM [23]: 64.7%; inhibition at 10 µM [24]: 41.3%; inhibition at 10 µM [25]: 64.3%; inhibition at 10 µM [26]: 25.7%; inhibition at 10 µM [27]: 79.3%; inhibition at 10 µM [28]: 22.1%; inhibition at 10 µM [29]: 54.8%; inhibition at 10 µM [30]: 28.9%
2 | O=C1Nc2ccc(F)cc2C1=Cc1ccc(OCc2ccccn2)cc1 (mixture of isomers) [Compound 5f, (E/Z)-5-fluoro-3-[4-(pyridin-2-ylmethoxy)benzylidene]indolin-2-one] | 18.8% | 57.8% | 10.2% | 19.4% | 28.2% | -8.53% | 4.47% | 5.79% | 14.9% | 8.7% | 13.9% | 41.8% | 3.55% | -3.45% | 16.6% | 37.8% | 7.24% | -9.45% | 1.98% | 15.8% | inhibition at 10 µM [21]: 6.67%; inhibition at 10 µM [22]: 24.2%; inhibition at 10 µM [23]: 6.35%; inhibition at 10 µM [24]: 4.04%; inhibition at 10 µM [25]: 60.7%; inhibition at 10 µM [26]: -20.2%; inhibition at 10 µM [27]: 14.6%; inhibition at 10 µM [28]: -10.8%; inhibition at 10 µM [29]: 26.5%; inhibition at 10 µM [30]: 21.9%
3 | O=C1Nc2ccc(Cl)cc2C1=Cc1ccc(OCc2ccncc2)cc1 (mixture of isomers) [Compound 5o, (E/Z)-5-Chloro-3-[4-(pyridin-4-ylmethoxy)benzylidene] indolin-2-one] | 60.6% | 60.5% | 21.2% | 70.5% | 44.9% | 14.5% | 17.7% | 53.9% | 24.9% | 52.4% | 66.5% | 66.9% | 81.2% | 4.23% | 32.4% | 92.8% | 43% | -14.4% | 44.2% | 37.6% | inhibition at 10 µM [21]: 38.3%; inhibition at 10 µM [22]: 73.8%; inhibition at 10 µM [23]: 84.7%; inhibition at 10 µM [24]: 34.4%; inhibition at 10 µM [25]: 61%; inhibition at 10 µM [26]: 12.4%; inhibition at 10 µM [27]: 72.5%; inhibition at 10 µM [28]: 19.2%; inhibition at 10 µM [29]: 51.1%; inhibition at 10 µM [30]: 27%
